Four compounds from patent EP1738742A2, “Benzyl-1,3-thiazolidine-2,4-dione compounds, compositions comprising them and use for stimulating or inducing the growth of keratinic fibres and/or for diminsihing their loss” (L'Oreal, priority 2005, dated 2007) can be followed below.

This experiment has as its target T1, 15-PGDH de type 1 (Homo sapiens, UniProt P15428).
T1 construct: made in house
T1 sequence (P15428 1-266): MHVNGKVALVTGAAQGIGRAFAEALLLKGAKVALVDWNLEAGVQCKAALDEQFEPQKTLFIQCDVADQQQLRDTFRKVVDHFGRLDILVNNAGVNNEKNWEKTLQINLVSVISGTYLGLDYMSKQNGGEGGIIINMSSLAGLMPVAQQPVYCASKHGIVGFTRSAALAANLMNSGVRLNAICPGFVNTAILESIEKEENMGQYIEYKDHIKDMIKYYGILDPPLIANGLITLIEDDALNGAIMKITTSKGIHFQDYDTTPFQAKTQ
Description: Test on 15-PGDH type 1: spectrophotometric enzyme inhibition (340 nm, NAD+/PGE2). Format: biochemical. The settings on record: concentration reducing the enzymatic activity of 15-PGDH by 50%; Tris 100 mM pH 7,4, 37°C, 50 µM Prostaglandine E2, 1,5 mM β-NAD. As for the experimental part:
L'enzyme 15-PGDH est obtenue comme décrit dans la demande FR 02/05067 déposée au nom de L'Oréal, en suspension dans un milieu adapté à une concentration de 0,3 mg/mL puis bloquée à - 80°C. Pour les besoins du test, cette suspension est décongelée et stockée dans de la glace.
Par ailleurs on prépare un tampon Tris 100 mM, pH = 7,4, contenant 0,1 mM de dithiothréitol (D5545, Sigma-Aldrich, L'isle D'Abeau Chesne, BP 701, 38297, Saint Quentin Fallavier), 1,5 mM de β-NAD (N6522, Sigma-Aldrich, L'isle D'Abeau Chesne, BP 701, 38297, Saint Quentin Fallavier), 50 µM de Prostaglandine E2 (P4172, Sigma-Aldrich, L'isle D'Abeau Chesne, BP 701, 38297, Saint Quentin Fallavier).
Dans la cuve d'un spectrophotomètre (Perkin-Elmer, Lambda 2) thermostaté à 37°C, dont la longueur d'onde de mesure est réglée à 340 nm, sont introduits 0,965 ml de ce tampon (préalablement porté à 37°C). 0,035 mL de suspension enzymatique à 37°C sont introduits dans la cuve concomitamment à l'enregistrement ( correspondant à une augmentation de la densité optique à 340 nm). La vitesse maximale de réaction est relevée.
Les valeurs essais (contenant les composés de formule (I)) sont comparées à la valeur témoin (sans composé de formule (I)); les résultats indiqués représentent soit le pourcentage d'inhibition de l'activité enzymatique de 15-PGDH pour une concentration donnée de composé de formule (I), soit la concentration à laquelle le composé de formule (I) réduit de 50% l'activité enzymatique de 15-PGDH, à savoir IC50dh.
As for `O=C1NC(=O)C(Cc2ccccc2Oc2ccccc2)S1` (stereo not shown) [compound 3], the IC50 came out at 2.75 µM.
`CC(C)(C)c1ccc(Oc2ccccc2CC2SC(=O)NC2=O)cc1` (stereo not shown) [compound 4, 5-[2-(4-tert-butylphenoxy)benzyl]-1,3-thiazolidine-2,4-dione] showed an IC50 of 0.4 µM.
Turning to `O=C1NC(=O)C(Cc2ccccc2Oc2ccc(Cl)cc2Cl)S1` (stereo not shown) [compound 2], the IC50 is 1.21 µM.
In the case of `CC(C)(C)c1ccc(Oc2cccc(CC3SC(=O)NC3=O)c2)cc1` (stereo not shown) [compound 5] it was 0.58 µM.
